“And” between values parts separate entries of the source, which are not always exact repeats. Identical values can stand only once. “Also recorded” adds a separate entry of the source.
Legend:
[1] = Mortality, clinical signs and body weight in the HCT116 xenograft study; format: in vivo; conditions: for mortality: N=10, deaths on day 14 and 22
Procedure: (§1) Foxn1 athymic nude female mice (7-8 weeks) were implanted with human colon cancer cell line, HCT116 (5 million cells/site) subcutaneously in the dorsal right flank. The animals were randomized (N=10) into different treatment groups as vehicle control, CLX-155 (125, 250 and 500 mg/kg/day) or capecitabine (1000 mg/kg/day) based on the tumor volume, when the subcutaneous tumor reached a volume in the range of 70-170 mm3. The doses were selected based on the results of a 7-day repeated dose range finding toxicity study in Foxn1 nude mice.
(§2) The animals in the control group were dosed with the formulation used for CLX-155, which consisted of Capryol 90 (32.5% w/v), Polysorbate 80 (2.5% w/v) in Water (q.$) at the dose volume of 8 mL/kg. The Capecitabine formulation was prepared using 0.5% Hydroxypropyl methylcellulose (HPMC E 15) in 40 mM citrate buffer, pH 6.0. Treatment to animals was performed for three consecutive weeks (5 days/week dosing followed by 2 days off). The dose volume was 8 and 10 ml/kg body weight for CLX-155 and capecitabine, respectively. […] Tumor growth inhibition (TGI) was calculated based on the tumor volume on a given day as compared to that on day 1.

[2] = system: HCT116 human colon cancer xenograft; experiment: Anti-tumor activity in HCT116 xenograft in Foxn1 athymic nude mice (study CLBBI1); format: in vivo; conditions: for Percent Tumor Growth Inhibition (% TGI): 5 days/week
Description: Evaluation of the Anti-Tumor Activity of CLX-155 [(2R,3R,4R,5R)-2-(5-fluoro-4-octanamido-2-oxopyrimidin-1(2H)-yl)-5-methyltetrahydrofuran-3,4-diyl diacetate] in Relation to Capecitabine in HCT116 Xenograft in Foxn1 Athymic Nude Mice Model Study Code: CLBBI1
The purpose of this study was to evaluate the anti-tumor activity of CLX-155 administered by oral gavage, once daily for 5 days/week (two days off) for three weeks in HCT116 human colon cancer xenograft bearing Foxn1 athymic nude mice. The anti-tumor activity of CLX-155 was compared with capecitabine.
as §1, §2

For `CCCCCOC(=O)Nc1nc(=O)n([C@@H]2O[C@H](C)[C@@H](O)[C@H]2O)cc1F` [Capecitabine, reference compound], which “Mean % body weight reduction” value ([1]; 1000 mg/kg/day) is on record?
Its value is −5.9%.

And the “clinical signs of toxicity” value ([1]; 1000 mg/kg/day)?
The value was “hunched back and scaly skin”.

What about the mortality ([1]; 1000 mg/kg/day) of the same molecule?
Its mortality is “Two”.

What about the mortality ([1]; 1000 mg/kg/day, listed as capecitabine) of the same molecule?
The mortality was 2/10.

What about the “relative toxicity based on mortality and clinical signs of toxicity” value ([1]; capecitabine 1000 mg/kg/day vs CLX-155 125-500 mg/kg/day) of the same molecule?
The value was “relatively more toxic than CLX-155”.

And the “CR or PR observed” value ([2]; 1000 mg/kg/day)?
The value was “no CR or PR observed”.

What about the “Percent Tumor Growth Inhibition (% TGI)” value ([2]; 1000 mg/kg/day, day 3) of the same molecule?
The value was 27.3%.

What about the “Percent Tumor Growth Inhibition (% TGI)” value ([2]; 1000 mg/kg/day, day 5) of the same molecule?
Its value is 46.2%.

What about the “Percent Tumor Growth Inhibition (% TGI)” value ([2]; 1000 mg/kg/day, day 8) of the same molecule?
Its value is 68.0%.

And the “Percent Tumor Growth Inhibition (% TGI)” value ([2]; 1000 mg/kg/day, day 10)?
The value was 75.4%.

And the “Percent Tumor Growth Inhibition (% TGI)” value ([2]; 1000 mg/kg/day, day 12)?
The value was 80.9%.

And the “Percent Tumor Growth Inhibition (% TGI)” value ([2]; 1000 mg/kg/day, day 15)?
The value was 87.7%.

And the “TGI compared with the other drug (in words)” value ([2]; Capecitabine at 1000 mg/kg/day)?
Its value is “comparable to that observed at 500 mg/kg/day of CLX-155”.

Which results are given for `CCCCCCCC(=O)Nc1nc(=O)n([C@@H]2O[C@H](C)[C@@H](OC(C)=O)[C@H]2OC(C)=O)cc1F` [CLX-155, (2R,3R,4R,5R)-2-(5-fluoro-4-octanamido-2-oxopyrimidin-1(2H)-yl)-5-methyltetrahydrofuran-3,4-diyl diacetate]?
Percent Tumor Growth Inhibition (% TGI) ([2]; 125 mg/kg/day oral gavage, day 3): 49.4%; Percent Tumor Growth Inhibition (% TGI) ([2]; 125 mg/kg/day oral gavage, day 5): 59.5%; Percent Tumor Growth Inhibition (% TGI) ([2]; 125 mg/kg/day oral gavage, day 8): 59.8%; Percent Tumor Growth Inhibition (% TGI) ([2]; 125 mg/kg/day oral gavage, day 10): 56.3%; Percent Tumor Growth Inhibition (% TGI) ([2]; 125 mg/kg/day oral gavage, day 12): 58.5%; Percent Tumor Growth Inhibition (% TGI) ([2]; 125 mg/kg/day oral gavage, day 15): 57.8%; Percent Tumor Growth Inhibition (% TGI) ([2]; 250 mg/kg/day oral gavage, day 3): 83.6%; Percent Tumor Growth Inhibition (% TGI) ([2]; 250 mg/kg/day oral gavage, day 5): 61.4%; Percent Tumor Growth Inhibition (% TGI) ([2]; 250 mg/kg/day oral gavage, day 8): 67.7%; Percent Tumor Growth Inhibition (% TGI) ([2]; 250 mg/kg/day oral gavage, day 10): 66.5%; Percent Tumor Growth Inhibition (% TGI) ([2]; 250 mg/kg/day oral gavage, day 12): 66.7%; Percent Tumor Growth Inhibition (% TGI) ([2]; 250 mg/kg/day oral gavage, day 15): 70.4%; Percent Tumor Growth Inhibition (% TGI) ([2]; 500 mg/kg/day oral gavage, day 3): 51.1%; Percent Tumor Growth Inhibition (% TGI) ([2]; 500 mg/kg/day oral gavage, day 5): 67.1%; Percent Tumor Growth Inhibition (% TGI) ([2]; 500 mg/kg/day oral gavage, day 8): 75.3%; Percent Tumor Growth Inhibition (% TGI) ([2]; 500 mg/kg/day oral gavage, day 10): 75.4%; Percent Tumor Growth Inhibition (% TGI) ([2]; 500 mg/kg/day oral gavage, day 12): 79.5%; Percent Tumor Growth Inhibition (% TGI) ([2]; 500 mg/kg/day oral gavage, day 15): 90.6%; complete tumor regressions / complete responders (CR) ([2]; 500 mg/kg/day, N=10): Two and 2/10; TGI compared with the other drug (in words) ([2]; CLX-155 at 500 mg/kg/day): comparable to capecitabine at 1000 mg/kg/day; tumor growth inhibition as compared to the vehicle control (in words) ([2]; all dose levels tested): statistically significant, dose dependent tumor growth inhibition at all doses; also recorded: statistically significant, dose dependent tumor growth inhibition at all the dose levels tested; also recorded: dose-dependent inhibition of tumor growth
